Paper PMC5078040 (Oncotarget, 2016)

How the values were obtained:
[1] = molecular target: T1, PRKCQ (Homo sapiens, UniProt Q04759); test: KinomeScan; type: binding; conditions: 1uM
T1 construct: purchased DiscoveRx KINOMEscan

[2] = molecular target: T2, TRKB (Homo sapiens, UniProt Q16620); test: KinomeScan; type: binding; conditions: 1uM
T2 construct: purchased DiscoveRx KINOMEscan

[3] = molecular target: T3, LRRK2 (Homo sapiens, UniProt Q5S007); test: KinomeScan; type: binding; conditions: 1uM
T3 construct: purchased DiscoveRx KINOMEscan

[4] = molecular target: PI3Kδ (Homo sapiens, UniProt O00329); test: Kinase kinetic assay (ATP competition, ADP-Glo); type: biochemical; conditions: varied ATP concentration
Experimental: Kinetic analyses of PI3KCD were performed using a luminometric kinase assay varying the concentration of ATP using the ADP-Glo reagents (Promega). […] After 60 min incubation at RT, varied concentrations of ATP, 0.1mM substrate PIP2:PS were added and incubated for 60 min at 37°C. The overall rate of reaction was determined as the slope of the decreasing phase of the reaction. Each data point was collected in duplicate and kinetic parameters were obtained using Prism 5.0 (GraphPad Software, San Diego, CA).

[5] = molecular target: T4, DRAK1 (Homo sapiens, UniProt Q9UEE5); test: KinomeScan; type: binding; conditions: 1uM
T4 construct: purchased DiscoveRx KINOMEscan

[6] = molecular target: T5, DMPK2 (Homo sapiens, UniProt Q6DT37); test: KinomeScan; type: binding; conditions: 1uM
T5 construct: purchased DiscoveRx KINOMEscan

[7] = molecular target: T6, GSK3A (Homo sapiens, UniProt P49840); test: KinomeScan; type: binding; conditions: 1uM
T6 construct: purchased DiscoveRx KINOMEscan

[8] = molecular target: T7, SNRK (Homo sapiens, UniProt Q9NRH2); test: KinomeScan; type: binding; conditions: 1uM
T7 construct: purchased DiscoveRx KINOMEscan

[9] = molecular target: T8, AURKC (Homo sapiens, UniProt Q9UQB9); test: KinomeScan; type: binding; conditions: 1uM
T8 construct: purchased DiscoveRx KINOMEscan

[10] = molecular target: T9, QSK (Homo sapiens, UniProt Q9Y2K2); test: KinomeScan; type: binding; conditions: 1uM
T9 construct: purchased DiscoveRx KINOMEscan

[11] = molecular target: T10, PFTK1 (Homo sapiens, UniProt O94921); test: KinomeScan; type: binding; conditions: 1uM
T10 construct: purchased DiscoveRx KINOMEscan

[12] = molecular target: T11, CDKL3 (Homo sapiens, UniProt Q8IVW4); test: KinomeScan; type: binding; conditions: 1uM
T11 construct: purchased DiscoveRx KINOMEscan

[13] = molecular target: T12, CDC2L5 (Homo sapiens, UniProt Q14004); test: KinomeScan; type: binding; conditions: 1uM
T12 construct: purchased DiscoveRx KINOMEscan

[14] = molecular target: T13, EPHB6 (Homo sapiens, UniProt O15197); test: KinomeScan; type: binding; conditions: 1uM
T13 construct: purchased DiscoveRx KINOMEscan

[15] = molecular target: T14, RSK4(Kin.Dom.1-N-terminal) (Homo sapiens, UniProt Q9UK32); test: KinomeScan; type: binding; conditions: 1uM
T14 construct: RSK4(Kin.Dom.1-N-terminal); purchased DiscoveRx KINOMEscan

[16] = molecular target: T15, BLK (Homo sapiens, UniProt P51451); test: KinomeScan; type: binding; conditions: 1uM
T15 construct: purchased DiscoveRx KINOMEscan

[17] = molecular target: T16, ARK5 (Homo sapiens, UniProt O60285); test: KinomeScan; type: binding; conditions: 1uM
T16 construct: purchased DiscoveRx KINOMEscan

[18] = molecular target: T17, TAOK2 (Homo sapiens, UniProt Q9UL54); test: KinomeScan; type: binding; conditions: 1uM
T17 construct: purchased DiscoveRx KINOMEscan

[19] = molecular target: T18, PLK2 (Homo sapiens, UniProt Q9NYY3); test: KinomeScan; type: binding; conditions: 1uM
T18 construct: purchased DiscoveRx KINOMEscan

[20] = molecular target: T19, MEK1 (Homo sapiens, UniProt Q02750); test: KinomeScan; type: binding; conditions: 1uM
T19 construct: purchased DiscoveRx KINOMEscan

[21] = molecular target: T20, PKN1 (Homo sapiens, UniProt Q16512); test: KinomeScan; type: binding; conditions: 1uM
T20 construct: purchased DiscoveRx KINOMEscan

[22] = molecular target: T21, FAK (Homo sapiens, UniProt Q05397); test: KinomeScan; type: binding; conditions: 1uM
T21 construct: purchased DiscoveRx KINOMEscan

[23] = molecular target: T22, ALK(C1156Y) (Homo sapiens, UniProt Q9UM73, C1156Y); test: KinomeScan; type: binding; conditions: 1uM
T22 construct: purchased DiscoveRx KINOMEscan

[24] = molecular target: T23, RSK3(Kin.Dom.2-C-terminal) (Homo sapiens, UniProt Q15349); test: KinomeScan; type: binding; conditions: 1uM
T23 construct: RSK3(Kin.Dom.2-C-terminal); purchased DiscoveRx KINOMEscan

[25] = molecular target: T24, RIPK4 (Homo sapiens, UniProt P57078); test: KinomeScan; type: binding; conditions: 1uM
T24 construct: purchased DiscoveRx KINOMEscan

[26] = molecular target: T25, DAPK1 (Homo sapiens, UniProt P53355); test: KinomeScan; type: binding; conditions: 1uM
T25 construct: purchased DiscoveRx KINOMEscan

[27] = molecular target: T26, AURKA (Homo sapiens, UniProt O14965); test: KinomeScan; type: binding; conditions: 1uM
T26 construct: purchased DiscoveRx KINOMEscan

[28] = molecular target: T27, MELK (Homo sapiens, UniProt Q14680); test: KinomeScan; type: binding; conditions: 1uM
T27 construct: purchased DiscoveRx KINOMEscan

[29] = molecular target: T28, GCN2(Kin.Dom.2,S808G) (Homo sapiens, UniProt Q9P2K8, S808G); test: KinomeScan; type: binding; conditions: 1uM
T28 construct: GCN2(Kin.Dom.2,S808G); purchased DiscoveRx KINOMEscan

[30] = molecular target: T29, SRPK1 (Homo sapiens, UniProt Q96SB4); test: KinomeScan; type: binding; conditions: 1uM
T29 construct: purchased DiscoveRx KINOMEscan

[31] = molecular target: T30, ANKK1 (Homo sapiens, UniProt Q8NFD2); test: KinomeScan; type: binding; conditions: 1uM
T30 construct: purchased DiscoveRx KINOMEscan

[32] = molecular target: T31, CDKL1 (Homo sapiens, UniProt Q00532); test: KinomeScan; type: binding; conditions: 1uM
T31 construct: purchased DiscoveRx KINOMEscan

[33] = molecular target: T32, PI4KA (Homo sapiens, UniProt P42356); test: ADP-glo biochemical assay
T32 construct: purchased Invitrogen
Experimental: The reaction in each tube was started immediately by adding ATP and kept going for an hour under 37°C. After the tube cooled for 5 minutes at room temperature, 5 μL solvent reactions were carried out in a 384-well plate. Then 5 μL of ADP-Glo™ reagent was added into each well to stop the reaction and consume the remaining ADP within 40 minutes. At the end, 10 μL of kinase detection reagent was added into the well and incubated for 30 minutes to produce a luminescence signal. Luminescence signal was measured with an automated plate reader (Perkin-Elmer Envision) and each measurement was performed in triplicate.

[34] = molecular target: T33, LYN (Homo sapiens, UniProt P07948); test: KinomeScan; type: binding; conditions: 1uM
T33 construct: purchased DiscoveRx KINOMEscan

[35] = molecular target: T34, TRKC (Homo sapiens, UniProt Q16288); test: KinomeScan; type: binding; conditions: 1uM
T34 construct: purchased DiscoveRx KINOMEscan

[36] = molecular target: T35, MAPKAPK2 (Homo sapiens, UniProt P49137); test: KinomeScan; type: binding; conditions: 1uM
T35 construct: purchased DiscoveRx KINOMEscan

[37] = molecular target: T36, PIM1 (Homo sapiens, UniProt P11309); test: KinomeScan; type: binding; conditions: 1uM
T36 construct: purchased DiscoveRx KINOMEscan

[38] = molecular target: T37, SIK2 (Homo sapiens, UniProt Q9H0K1); test: KinomeScan; type: binding; conditions: 1uM
T37 construct: purchased DiscoveRx KINOMEscan

[39] = molecular target: T38, RSK1(Kin.Dom.2-C-terminal) (Homo sapiens, UniProt Q15418); test: KinomeScan; type: binding; conditions: 1uM
T38 construct: RSK1(Kin.Dom.2-C-terminal); purchased DiscoveRx KINOMEscan
T38 sequence (Q15418 392-735 limits assumed): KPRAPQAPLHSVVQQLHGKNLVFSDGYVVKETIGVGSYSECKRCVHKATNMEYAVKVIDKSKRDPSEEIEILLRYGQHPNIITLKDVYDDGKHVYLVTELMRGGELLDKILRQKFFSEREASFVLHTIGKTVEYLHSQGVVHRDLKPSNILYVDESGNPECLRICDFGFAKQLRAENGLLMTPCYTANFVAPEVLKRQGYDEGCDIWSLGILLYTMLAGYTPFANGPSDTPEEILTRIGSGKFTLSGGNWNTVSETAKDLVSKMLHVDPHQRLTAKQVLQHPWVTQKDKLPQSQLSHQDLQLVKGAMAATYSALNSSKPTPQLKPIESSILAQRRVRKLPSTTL

T9 sequence (Q9Y2K2 whole entry): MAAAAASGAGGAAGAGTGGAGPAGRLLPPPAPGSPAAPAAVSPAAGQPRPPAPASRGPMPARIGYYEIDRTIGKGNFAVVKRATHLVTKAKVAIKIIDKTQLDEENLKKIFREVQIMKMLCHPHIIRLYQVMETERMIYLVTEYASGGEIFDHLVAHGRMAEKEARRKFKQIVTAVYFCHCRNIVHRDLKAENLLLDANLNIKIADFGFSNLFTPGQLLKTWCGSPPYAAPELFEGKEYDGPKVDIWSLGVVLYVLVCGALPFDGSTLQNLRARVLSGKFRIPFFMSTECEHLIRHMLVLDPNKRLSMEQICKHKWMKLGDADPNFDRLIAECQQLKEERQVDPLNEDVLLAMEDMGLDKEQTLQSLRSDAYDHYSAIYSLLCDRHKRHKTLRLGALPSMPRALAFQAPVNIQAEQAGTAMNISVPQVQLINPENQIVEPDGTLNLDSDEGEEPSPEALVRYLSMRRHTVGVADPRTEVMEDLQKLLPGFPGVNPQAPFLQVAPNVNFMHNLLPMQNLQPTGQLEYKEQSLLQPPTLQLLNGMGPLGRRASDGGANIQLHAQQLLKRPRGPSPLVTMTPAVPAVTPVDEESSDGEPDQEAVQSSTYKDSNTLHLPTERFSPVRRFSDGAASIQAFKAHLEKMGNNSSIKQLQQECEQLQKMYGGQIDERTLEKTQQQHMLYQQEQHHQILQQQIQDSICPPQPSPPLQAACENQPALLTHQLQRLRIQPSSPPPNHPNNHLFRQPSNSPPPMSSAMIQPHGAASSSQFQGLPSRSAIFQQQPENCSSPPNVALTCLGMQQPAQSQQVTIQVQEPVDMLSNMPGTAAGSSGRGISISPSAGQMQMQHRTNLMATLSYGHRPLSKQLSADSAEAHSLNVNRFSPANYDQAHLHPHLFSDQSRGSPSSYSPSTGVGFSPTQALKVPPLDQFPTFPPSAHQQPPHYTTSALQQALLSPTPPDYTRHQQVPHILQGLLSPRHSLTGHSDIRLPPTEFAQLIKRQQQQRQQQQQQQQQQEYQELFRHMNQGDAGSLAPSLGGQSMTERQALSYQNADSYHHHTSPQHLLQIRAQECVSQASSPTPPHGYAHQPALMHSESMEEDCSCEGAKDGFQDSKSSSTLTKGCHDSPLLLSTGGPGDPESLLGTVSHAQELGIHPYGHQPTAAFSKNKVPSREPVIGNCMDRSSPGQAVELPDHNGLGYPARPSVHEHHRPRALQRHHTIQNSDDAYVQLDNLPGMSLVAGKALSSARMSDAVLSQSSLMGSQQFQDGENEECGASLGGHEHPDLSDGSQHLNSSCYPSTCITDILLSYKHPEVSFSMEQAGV
T21 sequence (Q05397 whole entry): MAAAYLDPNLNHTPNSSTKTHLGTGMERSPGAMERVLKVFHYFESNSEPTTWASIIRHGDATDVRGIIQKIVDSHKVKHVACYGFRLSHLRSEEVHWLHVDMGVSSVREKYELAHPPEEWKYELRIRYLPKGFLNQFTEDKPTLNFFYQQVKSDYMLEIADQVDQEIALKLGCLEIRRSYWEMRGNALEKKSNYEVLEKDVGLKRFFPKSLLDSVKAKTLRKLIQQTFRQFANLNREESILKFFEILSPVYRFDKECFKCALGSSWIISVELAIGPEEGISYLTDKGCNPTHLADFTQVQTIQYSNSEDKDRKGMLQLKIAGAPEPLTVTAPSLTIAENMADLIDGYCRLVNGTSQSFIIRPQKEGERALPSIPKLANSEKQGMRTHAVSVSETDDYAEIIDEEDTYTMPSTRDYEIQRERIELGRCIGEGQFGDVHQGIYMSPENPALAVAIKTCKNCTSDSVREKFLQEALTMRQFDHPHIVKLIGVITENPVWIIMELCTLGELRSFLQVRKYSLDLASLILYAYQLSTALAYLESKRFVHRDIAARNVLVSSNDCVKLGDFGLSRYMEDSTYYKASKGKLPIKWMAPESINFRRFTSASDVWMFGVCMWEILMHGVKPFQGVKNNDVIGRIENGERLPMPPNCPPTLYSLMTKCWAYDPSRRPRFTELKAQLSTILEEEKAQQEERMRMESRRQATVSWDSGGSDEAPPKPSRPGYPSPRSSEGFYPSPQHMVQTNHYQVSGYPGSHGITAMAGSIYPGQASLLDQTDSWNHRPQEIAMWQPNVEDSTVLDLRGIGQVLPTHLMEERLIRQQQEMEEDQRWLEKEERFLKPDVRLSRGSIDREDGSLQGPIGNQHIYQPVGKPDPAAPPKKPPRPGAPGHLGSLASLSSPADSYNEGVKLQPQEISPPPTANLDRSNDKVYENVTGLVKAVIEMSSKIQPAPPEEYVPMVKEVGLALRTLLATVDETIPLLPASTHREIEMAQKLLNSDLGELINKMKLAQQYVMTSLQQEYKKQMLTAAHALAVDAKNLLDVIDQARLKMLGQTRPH
T27 sequence (Q14680 whole entry): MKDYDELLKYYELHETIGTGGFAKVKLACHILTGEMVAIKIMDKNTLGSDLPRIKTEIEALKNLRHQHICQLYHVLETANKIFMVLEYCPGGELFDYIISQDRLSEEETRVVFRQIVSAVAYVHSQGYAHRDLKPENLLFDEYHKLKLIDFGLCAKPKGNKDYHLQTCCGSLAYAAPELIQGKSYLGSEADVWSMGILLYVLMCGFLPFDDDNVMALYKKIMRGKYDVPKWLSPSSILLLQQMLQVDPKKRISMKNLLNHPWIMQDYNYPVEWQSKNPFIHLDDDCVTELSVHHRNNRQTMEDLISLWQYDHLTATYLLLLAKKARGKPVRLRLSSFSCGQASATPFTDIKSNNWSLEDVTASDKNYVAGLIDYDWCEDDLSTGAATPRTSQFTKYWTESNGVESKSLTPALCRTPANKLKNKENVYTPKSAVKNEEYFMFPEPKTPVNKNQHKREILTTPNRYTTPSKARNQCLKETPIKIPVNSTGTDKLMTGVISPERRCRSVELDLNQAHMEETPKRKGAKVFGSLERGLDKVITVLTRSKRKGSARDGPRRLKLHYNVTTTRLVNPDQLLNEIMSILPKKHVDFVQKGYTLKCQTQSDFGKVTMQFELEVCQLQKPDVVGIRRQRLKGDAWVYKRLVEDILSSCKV
T20 sequence (Q16512 whole entry): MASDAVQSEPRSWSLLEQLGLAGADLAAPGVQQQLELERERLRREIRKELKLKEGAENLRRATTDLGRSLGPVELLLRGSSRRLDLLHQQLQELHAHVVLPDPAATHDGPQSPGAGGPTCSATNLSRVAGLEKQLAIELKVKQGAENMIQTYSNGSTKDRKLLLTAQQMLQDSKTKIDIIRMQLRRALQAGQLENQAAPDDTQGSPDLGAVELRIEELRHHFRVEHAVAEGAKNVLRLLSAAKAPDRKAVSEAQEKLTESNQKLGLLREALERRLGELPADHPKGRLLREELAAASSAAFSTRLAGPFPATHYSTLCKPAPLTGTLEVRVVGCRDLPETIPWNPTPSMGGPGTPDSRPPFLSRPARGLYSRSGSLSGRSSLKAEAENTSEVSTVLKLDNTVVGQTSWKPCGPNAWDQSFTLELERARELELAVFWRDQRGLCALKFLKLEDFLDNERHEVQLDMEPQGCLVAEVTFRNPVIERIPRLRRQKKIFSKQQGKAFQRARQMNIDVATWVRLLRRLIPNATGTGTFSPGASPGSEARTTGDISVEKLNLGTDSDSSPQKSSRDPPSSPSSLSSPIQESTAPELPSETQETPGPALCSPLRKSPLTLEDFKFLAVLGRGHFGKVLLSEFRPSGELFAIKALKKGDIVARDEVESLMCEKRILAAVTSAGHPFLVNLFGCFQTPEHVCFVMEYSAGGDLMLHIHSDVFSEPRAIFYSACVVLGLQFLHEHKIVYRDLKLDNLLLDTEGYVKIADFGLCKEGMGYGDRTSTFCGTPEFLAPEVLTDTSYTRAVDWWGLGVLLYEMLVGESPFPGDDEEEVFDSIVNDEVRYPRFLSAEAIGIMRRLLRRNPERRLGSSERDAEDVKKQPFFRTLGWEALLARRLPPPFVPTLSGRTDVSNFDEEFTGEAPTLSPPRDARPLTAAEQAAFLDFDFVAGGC
T10 sequence (O94921 whole entry): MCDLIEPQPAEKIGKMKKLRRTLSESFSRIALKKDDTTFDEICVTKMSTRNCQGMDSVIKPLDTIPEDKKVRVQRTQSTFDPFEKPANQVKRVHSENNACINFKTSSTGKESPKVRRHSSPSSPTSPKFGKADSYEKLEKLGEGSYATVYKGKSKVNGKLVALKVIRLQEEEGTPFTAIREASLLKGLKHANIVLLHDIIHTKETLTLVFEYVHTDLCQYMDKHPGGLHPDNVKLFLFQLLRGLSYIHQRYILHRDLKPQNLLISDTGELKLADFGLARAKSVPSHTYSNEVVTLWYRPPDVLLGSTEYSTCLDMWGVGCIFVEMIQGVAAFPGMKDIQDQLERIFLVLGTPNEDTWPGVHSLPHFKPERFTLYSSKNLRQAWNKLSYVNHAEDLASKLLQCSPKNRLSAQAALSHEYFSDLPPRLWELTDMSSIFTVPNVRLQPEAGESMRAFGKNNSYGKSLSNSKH

Cc1nc(NC(=O)[C@@H](N)C(C)C)sc1-c1cnc(Cl)c(NS(=O)(=O)c2ccccc2)c1 [PI3KD-IN-015]
KinomeScan PRKCQ [1]: 100 | KinomeScan TRKB [2]: 100 | KinomeScan LRRK2 [3]: 100 | binding kinetics / mode of inhibition [4]: ATP competitive inhibitor | KinomeScan DRAK1 [5]: 91 | KinomeScan DMPK2 [6]: 100 | KinomeScan GSK3A [7]: 95 | KinomeScan SNRK [8]: 100 | KinomeScan AURKC [9]: 77 | KinomeScan QSK [10]: 94 | KinomeScan PFTK1 [11]: 100 | KinomeScan CDKL3 [12]: 100 | KinomeScan CDC2L5 [13]: 92 | KinomeScan EPHB6 [14]: 100 | KinomeScan RSK4(Kin.Dom.1-N-terminal) [15]: 100 | KinomeScan BLK [16]: 97 | KinomeScan ARK5 [17]: 87 | KinomeScan TAOK2 [18]: 96 | KinomeScan PLK2 [19]: 83 | KinomeScan MEK1 [20]: 100 | KinomeScan PKN1 [21]: 100 | KinomeScan FAK [22]: 80 | KinomeScan ALK(C1156Y) [23]: 100 | KinomeScan RSK3(Kin.Dom.2-C-terminal) [24]: 99 | KinomeScan RIPK4 [25]: 100 | KinomeScan DAPK1 [26]: 98 | KinomeScan AURKA [27]: 93 | KinomeScan MELK [28]: 90 | KinomeScan GCN2(Kin.Dom.2,S808G) [29]: 100 | KinomeScan SRPK1 [30]: 93 | KinomeScan ANKK1 [31]: 100 | KinomeScan CDKL1 [32]: 100 | IC50 [33]: > 10 µM | KinomeScan LYN [34]: 100 | KinomeScan TRKC [35]: 100 | KinomeScan MAPKAPK2 [36]: 95 | KinomeScan PIM1 [37]: 100 | KinomeScan SIK2 [38]: 95 | KinomeScan RSK1(Kin.Dom.2-C-terminal) [39]: 96
